Data taken from patent publication US9808466B2, “Macrocyclic compounds as protein kinase inhibitors” (Fundación Centro Nacional de Investigaciones Oncologicas …, priority 2011, dated 2017).
Where two headings read alike, the source gives them in different places.

Columns and labels:
PIM-1 = biological target: T1, PIM-1 (Homo sapiens, UniProt P11309); test: PIM-1 biochemical assay (ADP Hunter)
T1 construct: histidine tag (C); made in house
In short: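 Recombinant His-tagged human PIM-1 (50 pg/μl) with PIMtide peptide (60 μM) and 100 μM ATP in HEPES pH 7.4 buffer with MgCl2, 60 min at 30° C, DMSO below 2%. ADP formed detected by coupled ADP Hunter reaction as resorufin fluorescence (Ex 544/Em 580 nm).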

PI3K (p110α/p85α) = biological target: T2, PI3K (p110α/p85α) (Homo sapiens, UniProt P42336); test: PI3K activity assay (ADP Hunter Plus); assay type: biochemical
T2 construct: purchased Carna Biosciences 07CBS-0402A
In short: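 ADP accumulation measured by coupled fluorescence (ex 544/em 580 nm) after a 1 h kinase reaction at 25 °C, then 30 min at 37 °C with detection reagents. Activity normalised to no-compound control (100%) and IC50 from sigmoid dose-response fit.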

[1] = Pharmacokinetic in BALB-c female mice, i.v. and oral; assay type: in vivo; details: for AUC(0-inf) / half-life / clearance / MRT / Vd / bioavailability / Cmax: mouse; for half-life: read-out: T½ last (plasmatic half life) (converted); for clearance: read-out: Cl (plasmatic clearance) (converted); for MRT: read-out: MRT (Mean residence time); for Vd: read-out: Vd (volume of distribution); for bioavailability: read-out: F % (bioavailability); for Cmax: read-out: C max (maximum plasma concentration after oral administration)
Experimental: Experiments were done using BALB-c female mice, 10 weeks old. Compounds were dissolved in selected vehicles at a concentration calculated in order to administer the dose selected in 0.1 mL. Animals were administered by i.v and oral route (by gavage), and sacrificed at different time points (n=3 at each time point). Time points were 0.08, 0.25, 0.5, 1, 4 and 8 h for the i.v branch, and 0.08, 0.16, 0.25, 0.5, 1, 4, 8 and 24 h for oral branch. Blood was collected and processed for plasma which was analyzed and quantified by means of tandem mass spectrometry coupled with liquid chromatography. Pharmacokinetic parameters were estimated by fitting the experimental data to a compartmental model using Winnonlin software for pharmacokinetic analysis.

mTOR = biological target: T3, mTOR (Homo sapiens, UniProt P42345); test: mTOR assay (LanthaScreen kinase activity assay); assay type: biochemical
T3 construct: purchased Invitrogen PV4754

[2] = PIM1, read-out: PIM-1 activity, IC50 (semi-quantitative class)
[3] = read-out: PI3K alpha activity, IC50 (semi-quantitative class)
[4] = read-out: PI3K alpha actual IC50 (in parentheses)
[5] = iv, I.V, dose 5.00 mg/Kg, plasma
[6] = plasma, iv, I.V, dose 5.00 mg/Kg
[7] = plasma, po, P.O dose 10.00 mg/Kg vs I.V 5.00 mg/Kg
[8] = po, P.O, dose 10.00 mg/Kg, plasma
[9] = read-out: mTOR activity, IC50 (semi-quantitative class)
[10] = read-out: mTOR actual IC50 (in parentheses)
[11] = iv, I.V, dose 1.00 mg/Kg, plasma
[12] = plasma, iv, I.V, dose 1.00 mg/Kg
[13] = po, P.O, dose 3.00 mg/Kg, plasma
[14] = read-out: PIM-1 IC50 (in parentheses)
[15] = read-out: PIM-1 activity (semi-quantitative IC50)
[16] = read-out: PI3K alpha IC50 (in parentheses)
[17] = read-out: PI3K alpha activity (semi-quantitative IC50)
[18] = read-out: mTOR activity (semi-quantitative IC50)

T1 sequence (P11309 whole entry): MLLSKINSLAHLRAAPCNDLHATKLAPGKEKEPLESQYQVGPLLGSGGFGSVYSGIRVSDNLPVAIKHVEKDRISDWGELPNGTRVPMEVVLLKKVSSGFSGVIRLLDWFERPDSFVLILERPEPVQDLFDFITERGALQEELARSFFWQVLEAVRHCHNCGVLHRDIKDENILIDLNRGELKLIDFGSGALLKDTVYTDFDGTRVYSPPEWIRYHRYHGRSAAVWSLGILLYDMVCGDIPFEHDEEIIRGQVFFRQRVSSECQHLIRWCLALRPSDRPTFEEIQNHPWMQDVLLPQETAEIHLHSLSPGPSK
T2 sequence (P42336 whole entry): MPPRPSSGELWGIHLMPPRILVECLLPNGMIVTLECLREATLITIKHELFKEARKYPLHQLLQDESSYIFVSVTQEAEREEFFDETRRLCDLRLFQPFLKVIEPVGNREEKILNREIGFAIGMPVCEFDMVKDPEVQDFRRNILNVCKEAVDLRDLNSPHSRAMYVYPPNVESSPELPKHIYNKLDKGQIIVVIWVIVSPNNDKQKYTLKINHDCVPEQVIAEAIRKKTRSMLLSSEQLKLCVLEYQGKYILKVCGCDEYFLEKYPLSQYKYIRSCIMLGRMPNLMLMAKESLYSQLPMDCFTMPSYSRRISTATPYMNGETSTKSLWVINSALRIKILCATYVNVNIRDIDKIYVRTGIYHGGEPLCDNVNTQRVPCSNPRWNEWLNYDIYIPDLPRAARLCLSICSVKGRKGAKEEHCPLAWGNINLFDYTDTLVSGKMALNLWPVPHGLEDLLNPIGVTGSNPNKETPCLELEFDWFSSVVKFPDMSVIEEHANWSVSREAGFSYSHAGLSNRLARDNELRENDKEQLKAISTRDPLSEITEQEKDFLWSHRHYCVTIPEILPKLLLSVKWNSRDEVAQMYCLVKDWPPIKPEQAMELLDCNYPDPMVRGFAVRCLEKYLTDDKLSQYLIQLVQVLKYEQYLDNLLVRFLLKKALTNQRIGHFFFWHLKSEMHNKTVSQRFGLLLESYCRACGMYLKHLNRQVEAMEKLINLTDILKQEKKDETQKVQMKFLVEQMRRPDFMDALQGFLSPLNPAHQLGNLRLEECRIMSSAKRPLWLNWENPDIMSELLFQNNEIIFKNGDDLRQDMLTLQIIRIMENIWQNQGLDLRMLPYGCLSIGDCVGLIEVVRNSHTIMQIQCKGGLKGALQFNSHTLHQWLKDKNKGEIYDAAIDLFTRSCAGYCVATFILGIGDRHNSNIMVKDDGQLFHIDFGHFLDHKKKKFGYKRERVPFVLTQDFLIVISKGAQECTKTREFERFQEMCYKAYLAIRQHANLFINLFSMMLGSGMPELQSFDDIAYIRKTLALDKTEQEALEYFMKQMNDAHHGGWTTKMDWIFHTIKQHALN
T2 sequence (P27986 whole entry partner): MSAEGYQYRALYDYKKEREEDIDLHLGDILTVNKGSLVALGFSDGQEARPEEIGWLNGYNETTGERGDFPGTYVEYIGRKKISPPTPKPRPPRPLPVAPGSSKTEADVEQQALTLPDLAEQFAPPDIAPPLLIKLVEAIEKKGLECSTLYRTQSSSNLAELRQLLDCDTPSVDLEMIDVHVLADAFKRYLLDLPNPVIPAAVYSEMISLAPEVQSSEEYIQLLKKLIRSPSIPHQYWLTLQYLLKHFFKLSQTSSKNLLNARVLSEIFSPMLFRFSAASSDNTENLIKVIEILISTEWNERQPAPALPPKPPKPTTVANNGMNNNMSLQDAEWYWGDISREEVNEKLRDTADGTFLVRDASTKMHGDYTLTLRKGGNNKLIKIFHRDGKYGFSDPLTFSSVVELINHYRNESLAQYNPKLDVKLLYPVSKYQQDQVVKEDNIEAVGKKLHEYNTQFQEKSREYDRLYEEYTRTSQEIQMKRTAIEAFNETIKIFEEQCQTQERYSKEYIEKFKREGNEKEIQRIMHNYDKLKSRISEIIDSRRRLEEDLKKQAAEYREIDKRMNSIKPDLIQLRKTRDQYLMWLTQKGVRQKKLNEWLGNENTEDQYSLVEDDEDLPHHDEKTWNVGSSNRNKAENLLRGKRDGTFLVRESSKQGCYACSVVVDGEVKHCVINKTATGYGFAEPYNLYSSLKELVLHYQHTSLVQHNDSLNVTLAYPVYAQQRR
T3 sequence (P42345 1360-2549 limits assumed): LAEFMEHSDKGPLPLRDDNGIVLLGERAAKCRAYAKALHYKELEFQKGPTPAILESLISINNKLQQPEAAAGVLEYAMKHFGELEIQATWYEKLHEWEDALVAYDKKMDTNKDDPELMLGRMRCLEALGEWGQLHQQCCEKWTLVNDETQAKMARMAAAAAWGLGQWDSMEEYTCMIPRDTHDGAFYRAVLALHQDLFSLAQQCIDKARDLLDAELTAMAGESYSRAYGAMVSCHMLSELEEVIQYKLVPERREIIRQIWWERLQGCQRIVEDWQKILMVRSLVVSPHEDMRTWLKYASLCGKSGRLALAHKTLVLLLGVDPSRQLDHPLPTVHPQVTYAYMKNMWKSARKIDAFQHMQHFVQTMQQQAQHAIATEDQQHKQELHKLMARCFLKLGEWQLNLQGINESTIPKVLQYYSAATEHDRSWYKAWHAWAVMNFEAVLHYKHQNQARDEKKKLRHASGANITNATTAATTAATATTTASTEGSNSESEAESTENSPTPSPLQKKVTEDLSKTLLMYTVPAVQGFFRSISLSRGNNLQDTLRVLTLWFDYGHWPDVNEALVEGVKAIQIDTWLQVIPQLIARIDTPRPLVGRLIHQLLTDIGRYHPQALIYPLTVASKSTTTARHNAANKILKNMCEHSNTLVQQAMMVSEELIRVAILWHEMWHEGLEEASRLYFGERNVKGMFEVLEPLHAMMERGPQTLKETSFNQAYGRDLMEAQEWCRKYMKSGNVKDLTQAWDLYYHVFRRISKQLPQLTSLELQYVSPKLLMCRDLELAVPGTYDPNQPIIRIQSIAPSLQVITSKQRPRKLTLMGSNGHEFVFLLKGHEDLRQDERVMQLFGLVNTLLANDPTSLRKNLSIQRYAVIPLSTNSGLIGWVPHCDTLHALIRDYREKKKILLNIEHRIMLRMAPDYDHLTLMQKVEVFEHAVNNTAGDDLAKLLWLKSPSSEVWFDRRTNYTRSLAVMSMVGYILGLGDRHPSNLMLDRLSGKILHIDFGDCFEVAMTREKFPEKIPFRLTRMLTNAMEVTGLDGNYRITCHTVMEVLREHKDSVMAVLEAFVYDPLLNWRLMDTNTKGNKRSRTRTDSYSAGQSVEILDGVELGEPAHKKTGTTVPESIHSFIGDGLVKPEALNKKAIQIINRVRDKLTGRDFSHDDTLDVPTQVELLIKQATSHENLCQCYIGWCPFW

Structure (SMILES)	IC50 (PIM-1; [2]) [nM]	IC50 (PI3K (p110α/p85α); [3]) [nM]	IC50 (PI3K (p110α/p85α); [4]) [nM]	AUC(0-inf) [1, 5] [ng·h/mL]	half-life [1, 5] [h]	clearance [1, 6] [mL/min/kg]	MRT [1, 6] [h]	Vd [1, 6] [L/kg]	bioavailability [1, 7] [%]	AUC(0-inf) [1, 8] [ng·h/mL]	Cmax [1, 8] [ng/mL]	IC50 (mTOR; [9]) [nM]	IC50 (mTOR; [10]) [nM]	other results
COc1ncc2cc1NS(=O)(=O)c1cccc(c1)C(=O)NCc1cccc(c1)-c1ccnc3ccc-2cc13 [compound 3]	> 1000	< 100	1.6	23700	1.41	6	1.27	0.46	101	48100	12400	100 to 1000		
COc1ncc2cc1NS(=O)(=O)c1cc(c(F)cc1F)C(=O)NCc1cncc(c1)-c1ccnc3ccc-2cc13 [compound 10]	> 1000	< 100	0.03				0.53	0.28	39.9	7560	3390	< 100	22	Cl (plasmatic clearance) ([1]; I.V, dose 5.00 mg/Kg): 8.83 mL/min/kg; AUC inf ([1]; I.V, dose 5.00 mg/Kg, plasma): 9467.60 ng·h/mL; T½ last (plasmatic half life) ([1]; I.V, dose 5.00 mg/Kg, plasma): 0.57 h
COc1ncc2cc1NS(=O)(=O)c1cccc(c1)C(=O)NCc1cccc(c1)-c1cnn3ccc-2nc13 [compound 16]	> 1000	< 100	0.9	23600	2.23	4.5	3.33	0.99	123	29200	4820	< 100	4	
COc1ncc2cc1NS(=O)(=O)c1cccc(c1)C(=O)NCc1cccc(c1)-c1ncnc3ccc-2cc13 [compound 22]	> 1000	< 100	0.1	66900	3.42	1.17	4.94	0.37	33.5	44800	15000			
COc1ncc2cc1NS(=O)(=O)c1cccc(c1)C(=O)NCc1cncc(c1)-c1ccnc3ccc-2nc13 [compound 31]	> 1000	< 100	2	8930	0.39	11.5	0.81	0.56	34	6080	1640	< 100	23	
COc1ncc2cc1NS(=O)(=O)c1cccc(c1)C(=O)NCCn1cc(cn1)-c1ncnc3ccc-2cc13 [compound 33]	> 1000	< 100	1.3	9160	2.91	10	1.87	1.12	48.1	8810	1270	< 100	4.8	
COc1ncc2cc1NS(=O)(=O)c1cccc(c1)C(=O)N1CCc3ccc(cc3C1)-c1ccnc3ccc-2cc13 [compound 39]	> 1000	< 100	0.05									< 100	0.3	AUC(0-inf) [1, 11]: 4460 ng·h/mL; half-life [1, 11]: 1.66 h; clearance [1, 12]: 4.17 mL/min/kg; MRT [1, 12]: 2.39 h; Vd [1, 12]: 0.59 L/kg; bioavailability ([1]; plasma, po, P.O dose 3.00 mg/Kg vs I.V 1.00 mg/Kg): 26.8%; AUC(0-inf) [1, 13]: 3580 ng·h/mL; Cmax [1, 13]: 962 ng/mL
COc1ncc2cc1NS(=O)(=O)c1cccc(c1)C(=O)NCC1=CC=C(S1)c1ncnc3c1SC2=C3C [compound 68]	< 100	< 100	2.5	16600	3.15	0.667	10.9	0.49	34.5	57300	2930	< 100	90	IC50 (PIM-1; PIM1, read-out: PIM-1 actual IC50 (in parentheses)): 28 nM
COc1ccc2cc1C(=O)NCC1=CC=C(S1)c1ncnc3c1SC(=C3C)c1cnc(OC)c(c1)NS2(=O)=O [compound 100]														IC50 (PIM-1; [14]): 31 nM; IC50 (PIM-1; [15]): < 100 nM; IC50 (PI3K (p110α/p85α); [16]): 3.3 nM; IC50 (PI3K (p110α/p85α); [17]): < 100 nM; IC50 (mTOR; [18]): > 1000 nM
COc1ncc2cc1NS(=O)(=O)c1cccc(c1)C(=O)NCC1=CC=C(S1)c1ccnc3c1SC2=C3C [compound 101]														IC50 (PIM-1; [14]): 21 nM; IC50 (PIM-1; [15]): < 100 nM; IC50 (PI3K (p110α/p85α); [16]): 26 nM; IC50 (PI3K (p110α/p85α); [17]): < 100 nM; IC50 (mTOR; [18]): > 1000 nM
COc1ncc2cc1NS(=O)(=O)c1ccc(Cl)c(c1)C(=O)NCC1=CC=C(S1)c1ccnc3c1SC2=C3C [compound 102]														IC50 (PIM-1; [14]): 9.5 nM; IC50 (PIM-1; [15]): < 100 nM; IC50 (PI3K (p110α/p85α); [16]): 0.1 nM; IC50 (PI3K (p110α/p85α); [17]): < 100 nM; IC50 (mTOR; read-out: mTOR IC50 (in parentheses)): 28 nM; IC50 (mTOR; [18]): < 100 nM
